Values after ≈ are worked out from the molar mass of the structure shown. One block for each molecule: values may come before it.
Tests used:
Escherichia coli = assay: Antibacterial activity against Escherichia coli ATCC 25922 assessed as growth inhibition after 16 to 18 hr NCCLS agar dilution method; format: functional
Pseudomonas aeruginosa = assay: Antibacterial activity against Pseudomonas aeruginosa ATCC 27853 assessed as growth inhibition after 16 to 18 hr NCCLS agar dilution method; format: functional
Staphylococcus aureus = assay: Antibacterial activity against Staphylococcus aureus ATCC 25923 assessed as growth inhibition after 16 to 18 hr by NCCLS agar dilution method; format: functional
Helicobacter pylori [1] = assay: Antibacterial activity against Helicobacter pylori 05-2 assessed as growth inhibition after 16 to 18 hr NCCLS agar dilution method; format: functional
Helicobacter pylori [2] = assay: Antibacterial activity against Helicobacter pylori 06-5 assessed as growth inhibition after 16 to 18 hr NCCLS agar dilution method; format: functional
Helicobacter pylori [3] = assay: Antibacterial activity against Helicobacter pylori 05-9 assessed as growth inhibition after 16 to 18 hr NCCLS agar dilution method; format: functional
Helicobacter pylori [4] = assay: Antibacterial activity against Helicobacter pylori 05-3 assessed as growth inhibition after 16 to 18 hr NCCLS agar dilution method; format: functional
Helicobacter pylori [5] = assay: Antibacterial activity against Helicobacter pylori 06-7 assessed as growth inhibition after 16 to 18 hr NCCLS agar dilution method; format: functional
Helicobacter pylori [6] = assay: Antibacterial activity against Helicobacter pylori 05-14 assessed as growth inhibition after 16 to 18 hr NCCLS agar dilution method; format: functional
Helicobacter pylori [7] = assay: Antibacterial activity against Helicobacter pylori ATCC 11637 assessed as growth inhibition after 16 to 18 hr NCCLS agar dilution method; format: functional
Helicobacter pylori [8] = assay: Antibacterial activity against Helicobacter pylori 06-6 assessed as growth inhibition after 16 to 18 hr NCCLS agar dilution method; format: functional
Helicobacter pylori [9] = assay: Antibacterial activity against Helicobacter pylori 06-4 assessed as growth inhibition after 16 to 18 hr NCCLS agar dilution method; format: functional
Helicobacter pylori [10] = assay: Antibacterial activity against Helicobacter pylori 06-2 assessed as growth inhibition after 16 to 18 hr NCCLS agar dilution method; format: functional
Helicobacter pylori [11] = assay: Antibacterial activity against Helicobacter pylori 06-8 assessed as growth inhibition after 16 to 18 hr NCCLS agar dilution method; format: functional
Helicobacter pylori [12] = assay: Antibacterial activity against Helicobacter pylori 06-3 assessed as growth inhibition after 16 to 18 hr NCCLS agar dilution method; format: functional
Helicobacter pylori [13] = assay: Antibacterial activity against Helicobacter pylori assessed as growth inhibition after 16 to 18 hr NCCLS agar dilution method; format: functional
Helicobacter pylori [14] = assay: Antibacterial activity against Helicobacter pylori 06-1 assessed as growth inhibition after 16 to 18 hr NCCLS agar dilution method; format: functional
Helicobacter pylori [15] = assay: Antibacterial activity against Helicobacter pylori 05-12 assessed as growth inhibition after 16 to 18 hr NCCLS agar dilution method; format: functional
Helicobacter pylori [16] = assay: Antibacterial activity against Helicobacter pylori 05-1 assessed as growth inhibition after 16 to 18 hr NCCLS agar dilution method; format: functional
Helicobacter pylori [17] = assay: Antibacterial activity against Helicobacter pylori 05-4 assessed as growth inhibition after 16 to 18 hr NCCLS agar dilution method; format: functional, 05-Apr
Helicobacter pylori [18] = assay: Antibacterial activity against Helicobacter pylori 05-5 assessed as growth inhibition after 16 to 18 hr NCCLS agar dilution method; format: functional

MIC (Escherichia coli): > 64 µg/mL
MIC (Pseudomonas aeruginosa): > 64 µg/mL
MIC (Staphylococcus aureus): > 64 µg/mL
SMILES: CCO/N=C(/C/C=N/OCC)c1ccc(OC(C)C)cc1

MIC (Escherichia coli): > 64 µg/mL
MIC (Pseudomonas aeruginosa): > 64 µg/mL
MIC (Staphylococcus aureus): 4 µg/mL (≈ 18.1 µM)
SMILES: CCO/N=C/CC(=O)c1ccc(OC)cc1

SMILES: CC[C@H]1OC(=O)[C@H](C)[C@@H](O[C@H]2C[C@@](C)(OC)[C@@H](O)[C@H](C)O2)[C@H](C)[C@@H](O[C@@H]2O[C@H](C)C[C@H](N(C)C)[C@H]2O)[C@](C)(OC)C[C@@H](C)C(=O)[C@H](C)[C@@H](O)[C@]1(C)O [CLARITHROMYCIN]
MIC (Helicobacter pylori [1]): 64 µg/mL (≈ 85.6 µM)
MIC (Helicobacter pylori [2]): > 128 µg/mL
MIC (Helicobacter pylori [3]): > 128 µg/mL
MIC (Helicobacter pylori [4]): 64 µg/mL (≈ 85.6 µM)
MIC (Escherichia coli): 32 µg/mL (≈ 42.8 µM)
MIC (Helicobacter pylori [5]): 128 µg/mL (≈ 171 µM)
MIC (Helicobacter pylori [6]): > 128 µg/mL
MIC (Helicobacter pylori [7]): 32 µg/mL (≈ 42.8 µM)
MIC (Helicobacter pylori [8]): 128 µg/mL (≈ 171 µM)
MIC (Helicobacter pylori [9]): > 128 µg/mL
MIC (Helicobacter pylori [10]): > 128 µg/mL
MIC (Helicobacter pylori [11]): > 128 µg/mL
MIC (Helicobacter pylori [12]): > 128 µg/mL
MIC (Pseudomonas aeruginosa): > 64 µg/mL
MIC50 (Helicobacter pylori [13]): > 128 µg/mL
MIC90 (Helicobacter pylori [13]): > 128 µg/mL
MIC (Helicobacter pylori [14]): 64 µg/mL (≈ 85.6 µM)
MIC (Helicobacter pylori [15]): > 128 µg/mL
MIC (Helicobacter pylori [16]): > 128 µg/mL
MIC (Helicobacter pylori [17]): > 128 µg/mL
MIC (Helicobacter pylori [18]): > 128 µg/mL
MIC (Staphylococcus aureus): 0.12 µg/mL (≈ 0.16 µM)

SMILES: Cc1ncc([N+](=O)[O-])n1CCO [METRONIDAZOLE]
MIC (Helicobacter pylori [1]): > 128 µg/mL
MIC (Helicobacter pylori [2]): > 128 µg/mL
MIC (Helicobacter pylori [3]): > 128 µg/mL
MIC (Helicobacter pylori [4]): > 128 µg/mL
MIC (Helicobacter pylori [5]): > 128 µg/mL
MIC (Helicobacter pylori [6]): > 128 µg/mL
MIC (Helicobacter pylori [7]): 32 µg/mL (≈ 187 µM)
MIC (Helicobacter pylori [8]): > 128 µg/mL
MIC (Helicobacter pylori [9]): > 128 µg/mL
MIC (Helicobacter pylori [10]): > 128 µg/mL
MIC (Helicobacter pylori [11]): > 128 µg/mL
MIC (Helicobacter pylori [12]): > 128 µg/mL
MIC50 (Helicobacter pylori [13]): > 128 µg/mL
MIC90 (Helicobacter pylori [13]): > 128 µg/mL
MIC (Helicobacter pylori [14]): > 128 µg/mL
MIC (Helicobacter pylori [15]): > 128 µg/mL
MIC (Helicobacter pylori [16]): > 128 µg/mL
MIC (Helicobacter pylori [17]): > 128 µg/mL
MIC (Helicobacter pylori [18]): > 128 µg/mL

MIC (Escherichia coli): > 64 µg/mL
MIC (Pseudomonas aeruginosa): > 64 µg/mL
MIC (Staphylococcus aureus): 32 µg/mL (≈ 145 µM)
SMILES: CCOc1ccc(C(=O)C/C=N/OC)cc1

MIC (Escherichia coli): > 64 µg/mL
MIC (Pseudomonas aeruginosa): > 64 µg/mL
MIC (Staphylococcus aureus): > 64 µg/mL
SMILES: CO/N=C/CC(=O)c1ccc(OC(C)C)cc1

MIC (Escherichia coli): > 64 µg/mL
MIC (Pseudomonas aeruginosa): > 64 µg/mL
MIC (Staphylococcus aureus): > 64 µg/mL
SMILES: CCCCOc1ccc(C(=O)C/C=N/OCC)cc1

MIC (Helicobacter pylori [1]): > 128 µg/mL
MIC (Helicobacter pylori [2]): > 128 µg/mL
MIC (Helicobacter pylori [3]): > 128 µg/mL
MIC (Helicobacter pylori [4]): > 128 µg/mL
MIC (Escherichia coli): > 64 µg/mL
MIC (Helicobacter pylori [5]): > 128 µg/mL
MIC (Helicobacter pylori [6]): > 128 µg/mL
MIC (Helicobacter pylori [7]): > 128 µg/mL
MIC (Helicobacter pylori [8]): > 128 µg/mL
MIC (Helicobacter pylori [9]): > 128 µg/mL
MIC (Helicobacter pylori [10]): > 128 µg/mL
MIC (Helicobacter pylori [11]): > 128 µg/mL
MIC (Helicobacter pylori [12]): > 128 µg/mL
MIC (Pseudomonas aeruginosa): > 64 µg/mL
MIC50 (Helicobacter pylori [13]): > 128 µg/mL
MIC90 (Helicobacter pylori [13]): > 128 µg/mL
MIC (Helicobacter pylori [14]): > 128 µg/mL
MIC (Helicobacter pylori [15]): > 128 µg/mL
MIC (Helicobacter pylori [16]): > 128 µg/mL
MIC (Helicobacter pylori [17]): > 128 µg/mL
MIC (Helicobacter pylori [18]): > 128 µg/mL
MIC (Staphylococcus aureus): > 64 µg/mL
SMILES: COc1ccc(C(=O)CC(O)S(=O)(=O)[O-])cc1.[Na+] (stereo not given)

MIC (Escherichia coli): > 64 µg/mL
MIC (Pseudomonas aeruginosa): > 64 µg/mL
MIC (Staphylococcus aureus): > 64 µg/mL
SMILES: CO/N=C(/C/C=N/OC)c1ccc(OC)cc1

MIC (Escherichia coli): > 64 µg/mL
MIC (Pseudomonas aeruginosa): > 64 µg/mL
MIC (Staphylococcus aureus): > 64 µg/mL
SMILES: CCO/N=C(/C/C=N/OCC)c1ccc(OCC)cc1

MIC (Escherichia coli): > 64 µg/mL
MIC (Pseudomonas aeruginosa): > 64 µg/mL
MIC (Staphylococcus aureus): > 64 µg/mL
SMILES: CCO/N=C/CC(=O)c1ccc(OC(C)C)cc1

MIC (Escherichia coli): > 64 µg/mL
MIC (Pseudomonas aeruginosa): > 64 µg/mL
MIC (Staphylococcus aureus): 64 µg/mL (≈ 272 µM)
SMILES: CCO/N=C/CC(=O)c1ccc(OCC)cc1

MIC (Escherichia coli): > 64 µg/mL
MIC (Pseudomonas aeruginosa): > 64 µg/mL
MIC (Staphylococcus aureus): > 64 µg/mL
SMILES: CCO/N=C(/C/C=N/OCC)c1ccc(OC)cc1

MIC (Escherichia coli): > 64 µg/mL
MIC (Pseudomonas aeruginosa): > 64 µg/mL
MIC (Staphylococcus aureus): > 64 µg/mL
SMILES: CCOc1ccc(/C(C/C=N/OC)=N\OC)cc1

MIC (Escherichia coli): > 64 µg/mL
MIC (Pseudomonas aeruginosa): > 64 µg/mL
MIC (Staphylococcus aureus): > 64 µg/mL
SMILES: CCCCOc1ccc(/C(C/C=N/OCC)=N\OCC)cc1

MIC (Escherichia coli): > 64 µg/mL
MIC (Pseudomonas aeruginosa): > 64 µg/mL
MIC (Staphylococcus aureus): > 64 µg/mL
SMILES: CO/N=C(/C/C=N/OC)c1ccc(OC(C)C)cc1

MIC (Escherichia coli): > 64 µg/mL
MIC (Pseudomonas aeruginosa): 64 µg/mL (≈ 257 µM)
MIC (Staphylococcus aureus): > 64 µg/mL
SMILES: CCCCOc1ccc(C(=O)C/C=N/OC)cc1
